According to ChEMBL document CHEMBL3272151, “Quantitative structure-activity relationship of chymotrypsin-ligand interactions” (J Med Chem, 1977):

What was measured:
[1] = Binding affinity to chymotrypsin (unknown origin) assessed as acetylation at pH 7; details: Homo sapiens
[2] = Binding affinity to alpha-chymotrypsin (unknown origin); details: Homo sapiens
[3] = Binding affinity to alpha-chymotrypsin (unknown origin) assessed as hydrolysis; details: Homo sapiens
[4] = Binding affinity to chymotrypsin (unknown origin) assessed as hydrolysis; details: Homo sapiens
[5] = Binding affinity to chymotrypsin (unknown origin) assessed as deacetylation; details: Homo sapiens
[6] = Binding affinity to chymotrypsin (unknown origin); details: Homo sapiens
[7] = Inhibition of chymotrypsin (unknown origin); details: Homo sapiens
[8] = Binding affinity to chymotrypsin (unknown origin) assessed as acetylation at pH 6; details: Homo sapiens

Description for Homo sapiens: Inhibition of alpha-chymotrypsin (unknown origin)

c1ccc2cc3ccccc3cc2c1
log1/Ki (Homo sapiens): 5.26

O=C(Oc1ccc([N+](=O)[O-])cc1[N+](=O)[O-])c1ccc(Cl)cc1
log K [1]: 5.55

Clc1ccccc1
log1/Ki (Homo sapiens): 3.09

COC(=O)CNC(=O)C(C)C
log(1/Km) [2]: 1.34 | logKcat [3]: -1.68

COC(=O)[C@@H](NC(=O)CCl)C(C)C
logKcat [4]: -0.9 | log K [5]: -0.68 | log K [1]: -0.49 | log(1/Km) [6]: 1.37

COC(=O)CNC(=O)CC(C)C
log(1/Km) [2]: 1.62 | logKcat [3]: -1.6

COC(=O)[C@H](Cc1ccccc1)NC(=O)c1ccccc1
logKcat [4]: 1.49 | log K [5]: 1.96 | log K [1]: 1.66 | log(1/Km) [6]: 4.46

CCCCC
log1/Ki [7]: 2.25

N#Cc1ccc(C(=O)Oc2ccc([N+](=O)[O-])cc2[N+](=O)[O-])cc1
log K [1]: 5.94

CC(C)c1ccc(C(=O)Oc2ccc([N+](=O)[O-])cc2[N+](=O)[O-])cc1
log K [1]: 5.99

COC(=O)CNC(=O)c1c[nH]c2ccccc12
logKcat [4]: -1.25 | log(1/Km) [2]: 2.86

CC(C)(C)c1ccc(C(=O)Oc2ccc([N+](=O)[O-])cc2)cc1
log K [1]: 4.07

CC(=O)N[C@H](C(=O)OC(C)C)C(C)C
logKcat [4]: -1.08 | log K [5]: -0.68 | log K [1]: -0.75 | log(1/Km) [6]: 0.75

CCC[C@H](NC(=O)c1ccccc1)C(=O)OC
logKcat [4]: 0.39 | log K [5]: 0.77 | log K [1]: 0.62 | log(1/Km) [6]: 3.07

C1=Cc2ccccc2C1
log1/Ki [7]: 3.67

O=C(Oc1ccc([N+](=O)[O-])cc1[N+](=O)[O-])c1cccc(C(F)(F)F)c1
log K [1]: 5.47

COC(=O)CNC(=O)c1ccco1
log(1/Km) [2]: 1.71 | logKcat [3]: -0.01

COC(=O)CNS(C)(=O)=O
log(1/Km) [2]: 1.07 | logKcat [3]: -1.92

CC(C)c1ccc(C(=O)Oc2ccc([N+](=O)[O-])cc2)cc1
log K [1]: 4.44

CCC(=O)NCC(=O)OC
log(1/Km) [2]: 1.42 | logKcat [3]: -1.74

COc1ccc(C(=O)Oc2ccc([N+](=O)[O-])cc2)cc1
log K [5]: -4.39 | log K [8]: 2.78 | log K [1]: 2.97

COC(=O)[C@H](Cc1ccc(O)cc1)NC(C)=O
log(1/Km) [2]: 3.49 | logKcat [3]: 2.07

COC(=O)CNC(=O)c1ccccn1
log(1/Km) [2]: 2 | logKcat [3]: 0.39

O=C(Oc1ccc([N+](=O)[O-])cc1[N+](=O)[O-])c1ccc(C(F)(F)F)cc1
log K [1]: 6.4

CCOC(=O)CNC(C)=O
log K [1]: -1.03 | logKcat [3]: -1.42 | log(1/Km) [6]: 1.2

COC(=O)CNC(=O)CCl
logKcat [4]: -1.26 | log(1/Km) [2]: 1.16

O=C(O)CCCc1ccccc1
log1/Ki [7]: 3.22

COC(=O)CNC(=O)Cc1ccccc1
log(1/Km) [2]: 2.1 | logKcat [3]: -2.22

CCOC(=O)[C@H](Cc1ccc(O)cc1)NC(=O)c1ccccc1
logKcat [4]: 1.93 | log K [5]: 2.12 | log K [1]: 2.4 | log(1/Km) [6]: 4.66

COc1ccc(C(=O)Oc2ccc([N+](=O)[O-])cc2[N+](=O)[O-])cc1
log K [1]: 4.96

CCc1ccc(C(=O)Oc2ccc([N+](=O)[O-])cc2)cc1
log K [8]: 3.87 | log K [1]: 3.97

COC(=O)[C@H](Cc1ccc(O)cc1)NC(=O)c1ccccc1
logKcat [4]: 1.96 | log K [5]: 2.08 | log K [1]: 2.56 | log(1/Km) [6]: 4.74

N#Cc1ccc(C(=O)Oc2ccc([N+](=O)[O-])cc2)cc1
log K [8]: 3.35 | log K [1]: 3.94

COC(=O)CNC(=O)c1ccccc1
logKcat [4]: -0.9 | log K [1]: -0.38 | log(1/Km) [2]: 2.12

O=C(Oc1ccc([N+](=O)[O-])cc1)c1cccc(Cl)c1
log K [8]: 3.43 | log K [1]: 3.77

CCc1ccc(C(=O)Oc2ccc([N+](=O)[O-])cc2[N+](=O)[O-])cc1
log K [1]: 5.53

COC(=O)CNC(=O)c1cccnc1
log(1/Km) [2]: 1.5 | logKcat [3]: -0.34

c1ccc2ccccc2c1
log1/Ki (Homo sapiens): 3.93

Cc1cccc(C(=O)O)c1
log1/Ki [7]: 2.42

CCOC(=O)[C@H](C)NC(=O)c1ccccc1
logKcat [4]: -1.16 | log K [5]: -0.22 | log K [1]: -1.16 | log(1/Km) [6]: 2.22

Cc1ccc(C(=O)Oc2ccc([N+](=O)[O-])cc2)cc1
log K [8]: 2.85 | log K [1]: 3.31

O=C(Oc1ccc([N+](=O)[O-])cc1[N+](=O)[O-])c1ccccc1
log K [1]: 4.86

O=[N+]([O-])c1ccccc1
log1/Ki (Homo sapiens): 3.02

O=C(O)c1ccccc1
log1/Ki [7]: 1.99

CC[C@H](NC(=O)c1ccccc1)C(=O)OC
logKcat [4]: -0.49 | log K [5]: 0.18 | log K [1]: -0.39 | log(1/Km) [6]: 2.85

CC(C)(C)c1ccc(C(=O)O)cc1
log1/Ki [7]: 3.89

O=C(O)CCc1ccccc1
log1/Ki [7]: 2.79

CC[C@H](NC(C)=O)C(=O)OC
logKcat [4]: 0.02 | log K [5]: 0.22 | log K [1]: 0.94 | log(1/Km) [6]: 1.28

COC(=O)[C@H](CC(C)C)NC(C)=O
logKcat [4]: 0.7 | log K [5]: 1.2 | log(1/Km) [6]: 2.42

CC(=O)NCC(=O)Oc1ccc([N+](=O)[O-])cc1
logKcat [4]: 0.27 | log K [5]: -0.12 | log(1/Km) [6]: 3.4

COC(=O)[C@H](Cc1ccccc1)NC(C)=O
logKcat [4]: 1.72 | log K [5]: 2.04 | log K [1]: 2.9 | log(1/Km) [6]: 2.9

COC(=O)[C@@H](NC(C)=O)C(C)C
logKcat [4]: -0.82 | log K [5]: -0.68 | log K [1]: -0.01 | log(1/Km) [6]: 0.95

O=C(O)c1ccc2ccccc2c1
log1/Ki [7]: 3.86

O=C(Oc1ccc([N+](=O)[O-])cc1[N+](=O)[O-])c1cccc(Cl)c1
log K [1]: 5.47

O=C(Oc1ccc([N+](=O)[O-])cc1)c1ccccc1
log K [5]: -3.69 | log K [8]: 2.64 | log K [1]: 3.16

CCOC(=O)[C@@H](NC(C)=O)C(C)C
logKcat [4]: -0.88 | log K [5]: -0.68 | log K [1]: -0.26 | log(1/Km) [6]: 0.96

COC(=O)CNC(=O)c1ccncc1
log(1/Km) [2]: 1.75 | logKcat [3]: -0.8

O=C(Oc1ccc([N+](=O)[O-])cc1[N+](=O)[O-])c1cccc(F)c1
log K [1]: 5.25

COC(=O)CNC(=O)c1ccc(N)cc1
log(1/Km) [2]: 2.08 | logKcat [3]: -1.39

Cc1cccc(C(=O)Oc2ccc([N+](=O)[O-])cc2[N+](=O)[O-])c1
log K [1]: 4.75

COC(=O)CNC(C)=O
log K [1]: -0.31 | log(1/Km) [2]: 1.51 | logKcat [3]: -1.89

O=C(Oc1ccc([N+](=O)[O-])cc1)c1ccc(C(F)(F)F)cc1
log K [5]: -2.69 | log K [8]: 3.41 | log K [1]: 3.95

Cc1ccc(C(=O)Oc2ccc([N+](=O)[O-])cc2[N+](=O)[O-])cc1
log K [1]: 5.22

O=C(Oc1ccc([N+](=O)[O-])cc1)c1cccc(F)c1
log K [5]: -0.35 | log K [8]: 3.17 | log K [1]: 3.6

O=C(Oc1ccc([N+](=O)[O-])cc1)c1ccc(Cl)cc1
log K [5]: -3.48 | log K [8]: 3.27 | log K [1]: 3.56

CCC[C@H](NC(C)=O)C(=O)OC
logKcat [4]: 0.43 | log K [5]: 0.77 | log K [1]: 1.55 | log(1/Km) [6]: 1.99

O=C(Oc1ccc([N+](=O)[O-])cc1)c1cccc(C(F)(F)F)c1
log K [8]: 3.22 | log K [1]: 3.59

COc1ccc(OC(=O)CNC(=O)c2ccccc2)cc1
logKcat [4]: -0.25 | log(1/Km) [6]: 3.99

COC(=O)[C@@H](NC(=O)c1ccccc1)C(C)C
logKcat [4]: -1.19 | log K [5]: -0.66 | log K [1]: -1.04 | log(1/Km) [6]: 2.34

CCSCC(=O)NCC(=O)OC
log(1/Km) [2]: 1.98 | logKcat [3]: -2.27

CS(=O)(=O)N[C@@H](Cc1ccccc1)C(=O)Oc1cccc([N+](=O)[O-])c1
logKcat [4]: 1.49 | log(1/Km) [6]: 5.06

CS(=O)(=O)N[C@@H](Cc1ccccc1)C(=O)Oc1ccc(Cl)cc1
log K [4]: 1.56 | log(1/Km) [6]: 4.88

COC(=O)[C@H](C)NC(=O)c1ccccn1
logKcat [4]: -1.15 | log(1/Km) [6]: 1.74

CCc1ccccc1
log1/Ki (Homo sapiens): 2.74

CC[C@H](C)OC(=O)CNC(=O)c1ccccc1
logKcat [4]: -1.04 | log(1/Km) [6]: 2.95

O=C(Oc1ccc([N+](=O)[O-])cc1)c1ccc(F)cc1
log K [8]: 2.74 | log K [1]: 3.11

CC(=O)NCC(=O)O[C@H](C)c1ccccc1
logKcat [4]: -0.6 | log(1/Km) [6]: 3.66

CCCC[C@H](NC(C)=O)C(=O)OC
logKcat [4]: 0.92 | log K [5]: 1.28 | log K [1]: 2.01 | log(1/Km) [6]: 2.17

COC(=O)CNC(=O)C(F)(F)F
log(1/Km) [2]: 1.27 | logKcat [3]: -1.07

CC(=O)N[C@@H](Cc1ccccc1)C(=O)O[C@@H](C)c1ccccc1
logKcat [4]: 2.04 | log(1/Km) [6]: 4.22

Cc1cccc(C(=O)Oc2ccc([N+](=O)[O-])cc2)c1
log K [1]: 3.29

O=C(Oc1ccc([N+](=O)[O-])cc1[N+](=O)[O-])c1ccc(F)cc1
log K [1]: 4.83

Cc1ccc(OC(=O)CNC(=O)c2ccccc2)cc1
logKcat [4]: -0.21 | log(1/Km) [6]: 3.87

C[C@H](OC(=O)CNC(=O)c1ccccc1)c1ccccc1
logKcat [4]: -0.13 | log(1/Km) [6]: 3.77

CCOC(=O)NCC(=O)OC
log(1/Km) [2]: 1.19 | logKcat [3]: -0.88

COC(=O)[C@H](CC1CCCCC1)NC(C)=O
logKcat [4]: 1.18 | log(1/Km) [6]: 3.72

CS(=O)(=O)N[C@@H](Cc1ccccc1)C(=O)Oc1ccccc1
logKcat [4]: 1.51 | log(1/Km) [6]: 4.57

O=C(Oc1ccc([N+](=O)[O-])cc1)c1ccc([N+](=O)[O-])cc1
log K [5]: -3.44 | log K [8]: 3.55 | log K [1]: 3.96

Cc1ccccc1
log1/Ki (Homo sapiens): 2.55

COC(=O)CNC(=O)C(Cl)Cl
log(1/Km) [2]: 1.66 | logKcat [3]: -1.64

C1=CCCCC1
log1/Ki [7]: 2.07

CCOC(=O)[C@H](Cc1ccc(O)cc1)NC(C)=O
logKcat [4]: 2.28 | log K [5]: 2.3 | log K [1]: 3.7 | log(1/Km) [6]: 3.15

Cc1ccc(C(=O)O)cc1
log1/Ki [7]: 2.43

CCOC(=O)[C@H](Cc1ccccc1)NC(C)=O
logKcat [4]: 1.84 | log K [5]: 1.97 | log K [1]: 2.42 | log(1/Km) [6]: 2.96
